Earlier results, collected in US20070231312A1, “NUTRITIONAL SUPPLEMENT FOR PREGNANT FEMALES” (priority 2006, published 2007).
Blank lines part the entries; values can stand above or below the molecule they belong to.

Columns and labels:
[1] = test system: women at high risk for developing preeclampsia; conditions: treatment group; 1000 μg. per day for 6 to 8 weeks during late gestation; placebo 22.7%
[2] = supplementation in pregnancy
glutathione peroxidase = conditions: placental homogenates from late human gestation
[3] = test system: oxidative mitochondrial damage; conditions: in vitro studies, ischemia reperfusion model
primigravida women = conditions: 2 mg. twice daily beginning at 16-20 wks; placebo 17.7%, P<0.05

Compound: [Se] [Selenium]
- incidence of pregnancy-induced hypertension [1]: 7.7%

- level in maternal serum [2]: increase
Compound: CC1=C(/C=C/C(C)=C/C=C/C(C)=C/C=C/C=C(C)/C=C/C=C(C)/C=C/C2=C(C)CCCC2(C)C)C(C)(C)CCC1 [beta-carotene]

- glutathione peroxidase activity (glutathione peroxidase): reduction
Compound: COc1ccc2[nH]cc(CCNC(C)=O)c2c1 [melatonin, Melatonin]
- protection against oxidative mitochondrial damage [3]: protects against oxidative mitochondrial damage

Compound: COC(=O)[C@@H](N)CCCNC(=N)N[N+](=O)[O-] [L-NAME, N^G-nitro-L-arginine methyl ester]
- effects on blood pressure, fetal growth and proteinuria (pregnant rats): elevated blood pressure, fetal retarded growth and proteinuria

Compound: CC(C)=CCC/C(C)=C/C=C/C(C)=C/C=C/C(C)=C/C=C/C=C(C)/C=C/C=C(C)/C=C/C=C(\C)CCC=C(C)C [lycopene, Lycopene]
- women developing preeclampsia (primigravida women): 8.6%
